The text below walks through data of patent US20230338348A1, “RENIN-ANGIOTENSIN SYSTEM (RAS) MODULATORS FOR TREATMENT OF VIRAL INFECTIONS, PHARMACEUTICAL COMPOSITIONS INCLUDING THE SAME, AND METHODS OF TREATING USING THE SAME” (Trocar Pharma Inc., priority 2020, published 2023).

In data set [1] the test system is Preglomerular vascular smooth muscle cells. Put plainly: O2- generation in Ang II-stimulated preglomerular vascular smooth muscle cells. It is filed as cell-based. The note with it: cells stimulated by 10^−6 M Ang II. From the text:
Preglomerular vascular smooth muscle cells were stimulated by 10^−6 M Ang II to produce O2^−.

Another data set addresses T1, Human AT1 (Homo sapiens, UniProt P30556).
T1 sequence (P30556 1-359): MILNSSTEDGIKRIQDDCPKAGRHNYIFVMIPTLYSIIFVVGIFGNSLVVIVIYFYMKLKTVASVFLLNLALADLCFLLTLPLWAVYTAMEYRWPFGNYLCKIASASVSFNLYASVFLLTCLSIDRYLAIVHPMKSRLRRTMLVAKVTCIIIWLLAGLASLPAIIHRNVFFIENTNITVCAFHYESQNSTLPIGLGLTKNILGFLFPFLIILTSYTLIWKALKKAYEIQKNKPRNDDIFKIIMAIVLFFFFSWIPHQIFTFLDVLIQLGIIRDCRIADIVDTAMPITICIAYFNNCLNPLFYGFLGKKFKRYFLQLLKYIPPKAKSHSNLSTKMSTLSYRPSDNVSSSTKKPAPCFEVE
Put plainly: Angiotensin II AT1 receptor inhibition. It is filed as binding. The note with it: Human AT1, at 1.0 × 10^−8M drug, N = 2.

For data set [2] the following is noted: in vivo; cited from earlier work.
The next data set has as its target T2, AT2, angiotensin II (Homo sapiens, UniProt P50052).
T2 sequence (P50052 1-363): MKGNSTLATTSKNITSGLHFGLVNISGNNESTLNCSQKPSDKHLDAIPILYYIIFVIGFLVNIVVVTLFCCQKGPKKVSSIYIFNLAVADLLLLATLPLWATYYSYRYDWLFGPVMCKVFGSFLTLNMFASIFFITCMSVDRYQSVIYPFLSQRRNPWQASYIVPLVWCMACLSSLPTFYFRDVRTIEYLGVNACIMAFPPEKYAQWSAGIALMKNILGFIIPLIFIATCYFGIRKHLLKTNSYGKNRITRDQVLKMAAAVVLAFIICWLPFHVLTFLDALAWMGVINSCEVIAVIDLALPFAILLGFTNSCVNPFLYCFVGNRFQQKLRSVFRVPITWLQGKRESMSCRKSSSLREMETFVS
As to the kind of experiment: Angiotensin II AT2 receptor inhibition. The conditions noted are these: at 1.0 × 10^−9M drug, N = 2. It is filed as binding.

Turning to `CCCc1nc2c(C)cc(-c3nc4ccccc4n3C)cc2n1Cc1ccc(-c2ccccc2C(=O)O)cc1` [Telmisartan], the “inhibition of O2− generation (antioxidant action)” value in data set [1] was “do not have antioxidant actions”. Moreover, at Human AT1, 0.01 µM produced 52.7% inhibition. In data set [2], the half-life is 24 h. Also, on AT2, angiotensin II, at 0.001 µM the inhibition was 6.37%.

Broadly, the inhibition is the share of the control response that was lost under treatment. A higher inhibition goes with strong suppression. By half-life is commonly meant how long it takes for the measured level to halve.
